Experimental data as given in patent US8268848B2, “Cyclopropane compound” (Eisai R&D Management Co., Ltd., priority 2010, dated 2012).
Read-outs that look alike come from different tables or passages of the source.

Key:
[1] = biological target: T1, OX2 (Homo sapiens, UniProt O43614); test: Measurement of orexin receptor-binding ability ([125I]-OX-A, cell membranes, OX2); parameters: expressed in transfected cells; host or cells: CHO cells (membrane preparation); conditions: membranes of recombinant CHO cells expressing OX2, 0.2 nM [125I]-OX-A
T1 sequence (O43614 1-444): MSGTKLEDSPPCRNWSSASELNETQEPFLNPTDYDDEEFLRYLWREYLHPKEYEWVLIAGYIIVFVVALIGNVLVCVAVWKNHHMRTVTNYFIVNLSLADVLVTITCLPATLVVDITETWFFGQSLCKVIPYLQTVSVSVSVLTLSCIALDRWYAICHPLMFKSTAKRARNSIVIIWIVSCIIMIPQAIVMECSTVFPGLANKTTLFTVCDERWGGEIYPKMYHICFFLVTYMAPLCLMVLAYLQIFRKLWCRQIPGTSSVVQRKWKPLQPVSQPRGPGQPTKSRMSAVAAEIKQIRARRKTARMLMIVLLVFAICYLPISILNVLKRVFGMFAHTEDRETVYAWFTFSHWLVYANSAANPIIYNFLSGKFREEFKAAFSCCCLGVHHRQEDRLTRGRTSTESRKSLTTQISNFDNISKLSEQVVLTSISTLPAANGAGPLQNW

[2] = biological target: T2, OX1 (Homo sapiens, UniProt O43613); test: Measurement of orexin receptor-binding ability ([125I]-OX-A, cell membranes, OX1); parameters: expressed in transfected cells; host or cells: CHO cells (membrane preparation)
T2 sequence (O43613 1-425): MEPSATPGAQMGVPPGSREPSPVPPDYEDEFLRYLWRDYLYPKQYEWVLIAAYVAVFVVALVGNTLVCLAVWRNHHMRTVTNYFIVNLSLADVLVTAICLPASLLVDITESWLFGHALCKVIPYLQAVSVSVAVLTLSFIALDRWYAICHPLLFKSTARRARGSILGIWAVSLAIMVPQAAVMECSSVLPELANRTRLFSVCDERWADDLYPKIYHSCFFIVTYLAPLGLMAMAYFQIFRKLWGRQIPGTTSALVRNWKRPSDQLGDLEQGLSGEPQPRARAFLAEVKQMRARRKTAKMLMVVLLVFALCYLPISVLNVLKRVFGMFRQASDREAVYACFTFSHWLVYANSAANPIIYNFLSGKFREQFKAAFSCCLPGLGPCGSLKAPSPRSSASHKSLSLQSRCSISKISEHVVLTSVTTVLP

[3] = system: mice (C57BL/6NCrlCrLj); test: Sleep experiment (EEG/EMG) in mice; type: in vivo; conditions: 10 mg/kg
Description: As a method for measuring the influence of the present compound on sleep time, electroencephalogram (EEG) and electromyogram (EMG) measurements were carried out in mice (C57BL/6NCrlCrLj).
In order to measure brain waves and muscle signals, EEG and EMG electrode implantation was performed on individual mice, and the mice were then housed in a state in which they could freely move and habituate in individual recording cages for 1 week or longer. Thereafter, amplified EEG and EMG signals were digitally recorded.
Mice received either oral administration of vehicle or test compound in vehicle, after which sleep/wake behavior of mice was recorded for 3 hours.
For sleep analysis, automatic analysis software from Kissei Comtec Co., Ltd. was used to analyze EEG frequency and EMG activity signals in detail and to determine sleep and wake states. Thereafter, accumulated sleeping time over 3 hours was calculated.
The effect of the compound to increase sleep time was evaluated as the difference between sleeping time on the vehicle-administration day and the sleep time on the subsequent drug-administration day.
The minimum effective dose (MED; mg/kg) was obtained from accumulated sleep time of mice with three hours after the administration.

[4] = membranes of recombinant CHO cells expressing OX1, 0.2 nM [125I]-OX-A, read-out: OX1 (IC50)
[5] = mice, oral administration, difference to vehicle day, 3 hours

SMILES | IC50 ([1]; read-out: OX2 (IC50)) | IC50 [2, 4] | Sleep extended time 10 mg/kg (min/3 hrs) ([3]; po, 3 h) | IC50 ([1]; OX2 (IC50) nM) | IC50 [2] | Sleep extended time 10 mg/kg (min/3 hrs) [3, 5]
COc1cc(NC(=O)[C@@H]2C[C@@]2(COc2cnc(C)nc2C)c2ccccc2)ncc1F [Example 73, (1R,2S)-2-{[(2,4-dimethylpyrimidin-5-yl)oxy]methyl}-N-(5-fluoro-4-methoxypyridin-2-yl)-2-phenylcyclopropanecarboxamide] | 5.7 nM | 3.4 nM | 22.7 min/3 hrs |  |  | 
Cc1ncc(OC[C@@]2(c3cccc(F)c3)C[C@H]2C(=O)Nc2ccc(C#N)cn2)c(C)n1 [Example 96, (1R,2S)-N-(5-cyanopyridin-2-yl)-2-{[(2,4-dimethylpyrimidin-5-yl)oxy]methyl}-2-(3-fluorophenyl)cyclopropanecarboxamide] |  |  |  | 5 nM | 32 nM | 12.1 min/3 hrs
Cc1ncc(OC[C@@]2(c3ccc(F)cc3)C[C@H]2C(=O)Nc2ccc(F)cc2)c(C)n1 [Example 105, (1R,2S)-N,2-bis(4-fluorophenyl)-2-{[(2,4-dimethylpyrimidin-5-yl)oxy]methyl}-N,2-bis(4-fluorophenyl)cyclopropanecarboxamide] |  |  |  | 18 nM | 195 nM | 14.3 min/3 hrs
Cc1ncc(OC[C@@]2(c3cc(F)cc(F)c3)C[C@H]2C(=O)Nc2ccc(F)cc2)c(C)n1 [Example 130, (1R,2S)-2-(3,5-difluorophenyl)-2-{[(2,4-dimethylpyrimidin-5-yl)oxy]methyl}-N-(4-fluorophenyl)cyclopropanecarboxamide] | 4 nM | 22 nM | 24.2 min/3 hrs |  |  | 
COCc1nc(C)ncc1OC[C@@]1(c2ccccc2)C[C@H]1C(=O)Nc1ccc(F)cn1 [Example 141, (1R,2S)-N-(5-fluoropyridin-2-yl)-2-{[(4-(methoxymethyl)-2-methylpyrimidin-5-yl)oxy]methyl}-2-phenylcyclopropanecarboxamide] | 1.3 nM | 9 nM | 28.7 min/3 hrs |  |  | 
COCc1nc(C)ncc1OC[C@@]1(c2cccc(F)c2)C[C@H]1C(=O)Nc1ccc(F)cn1 [Example 191, (1R,2S)-2-(3-fluorophenyl)-N-(5-fluoropyridin-2-yl)-2-[(4-methoxymethyl-2-methylpyrimidin-5-yl)oxymethyl]cyclopropanecarboxamide] |  |  |  | 1 nM | 1 nM | 41.8 min/3 hrs
COCc1nc(C)ncc1OC[C@@]1(c2cccc(F)c2)C[C@H]1C(=O)Nc1cc(C)c(F)cn1 [Example 199, (1R,2S)-N-(5-fluoro-4-methylpyridin-2-yl)-2-(3-fluorophenyl)-2-{[(4-methoxymethyl-2-methylpyrimidin-5-yl)oxy]methyl}cyclopropanecarboxamide] | 2 nM | 2 nM | 36.2 min/3 hrs |  |  | 
Cc1ncc(OC[C@@]2(c3cc(F)cc(F)c3)C[C@H]2c2nc3ncc(F)cc3[nH]2)c(C)n1 [Example 306, 2-{(1R,2S)-2-(3,5-difluorophenyl)-2-{[(2,4-dimethylpyrimidin-5-yl)oxy]methyl}cyclopropyl}-6-fluoro-1H-imidazo[4,5-b]pyridine] | 8 nM | 15 nM |  |  |  | 
Cc1ncc(OC[C@@]2(c3cccc(F)c3)C[C@H]2c2nc3ccccc3c(=O)[nH]2)c(C)n1 [Example 310] | 13 nM | 40 nM |  |  |  | 
Cc1ncc(OC[C@@]2(c3cccc(F)c3)C[C@H]2c2nc3ccc(Cl)cc3c(=O)[nH]2)c(C)n1 [Example 311] | 3.1 nM | 23 nM |  |  |  | 
Cc1ncc(OC[C@@]2(c3cccc(F)c3)C[C@H]2c2nc3ncccc3c(=O)[nH]2)c(C)n1 [Example 312] | 62 nM | 136 nM |  |  |  | 
CCc1ncc(OC[C@@]2(c3ccccc3)C[C@H]2C(=O)Nc2ccc(F)cn2)c(C)n1 [Example 313] |  |  |  | 107 nM | 224 nM | 
CCc1nc(C)ncc1OC[C@@]1(c2cccc(F)c2)C[C@H]1C(=O)Nc1ccc(F)cc1 [Example 316, (1R,2S)-2-{[(4-ethyl-2-methylpyrimidin-5-yl)oxy]methyl}-2-(3-fluorophenyl)-N-(4-fluorophenyl)cyclopropanecarboxamide] | 1.1 nM | 7 nM |  |  |  | 
CCc1nc(C)ncc1OC[C@@]1(c2ccccc2)C[C@H]1C(=O)Nc1cncc(OC)c1 [Example 317] | 20 nM | 451 nM |  |  |  | 
CCc1nc(C)ncc1OC[C@@]1(c2ccccc2)C[C@H]1C(=O)Nc1ccc(F)cc1 [Example 318] | 11 nM | 135 nM |  |  |  | 
Cc1ncc(OC[C@@]2(c3cccc(F)c3)C[C@H]2C(=O)Nc2ncc(F)cc2O)c(C)n1 [Example 319, (1R,2S)-2-{{[(2,4-dimethylpyrimidin-5-yl)oxy]methyl}}-N-(5-fluoro-3-hydroxypyridin-2-yl)-2-(3-fluorophenyl)cyclopropanecarboxamide] |  |  |  | 128 nM | > 200 nM | 
Cc1ncc(OC[C@@]2(c3cccc(F)c3)C[C@H]2C(=O)Nc2ccc(F)cn2)c(CF)n1 [Example 320, (1R,2S)-2-{[(4-fluoromethyl-2-methylpyrimidin-5-yl)oxy]methyl}-2-(3-fluorophenyl)-N-(5-fluoropyridin-2-yl)cyclopropanecarboxamide] |  |  |  | 2.3 nM | 12.3 nM | 
Cc1ncc(OC[C@@]2(c3ccc(O)c(F)c3)C[C@H]2C(=O)Nc2ccc(F)cn2)c(C)n1 [Example 321, (1R,2S)-2-{[(2,4-dimethylpyrimidin-5-yl)oxy]methyl}-2-(3-fluoro-4-hydroxyphenyl)-N-(5-fluoropyridin-2-yl)cyclopropanecarboxamide] |  |  |  | 7 nM | 20 nM | 
COc1ccc([C@]2(COc3cnc(C)nc3C)C[C@H]2C(=O)Nc2ccc(F)cn2)cc1F [Example 322, (1R,2S)-2-{[(2,4-dimethylpyrimidin-5-yl)oxy]methyl}-2-(3-fluoro-4-methoxyphenyl)-N-(5-fluoropyridin-2-yl)cyclopropanecarboxamide] |  |  |  | 7 nM | 30 nM | 
Cc1nc(CO)ncc1OC[C@@]1(c2cccc(F)c2)C[C@H]1C(=O)Nc1ccc(F)cn1 [Example 323, (1R,2S)-2-(3-fluorophenyl)-N-(5-fluoropyridin-2-yl)-2-{[(2-hydroxymethyl-4-methylpyrimidin-5-yl)oxy]methyl}cyclopropanecarboxamide] |  |  |  | 2.6 nM | 32.6 nM | 
Cc1ncc(OC[C@@]2(c3cc(F)ccc3O)C[C@H]2C(=O)Nc2ccc(F)cn2)c(C)n1 [Example 324, (1R,2S)-2-{[(2,4-dimethylpyrimidin-5-yl)oxy]methyl}-2-(5-fluoro-2-hydroxyphenyl]-N-(5-fluoropyridin-2-yl)cyclopropanecarboxamide] |  |  |  | 5.9 nM | 113 nM | 
Cc1ncc(OC[C@@]2(c3cccc(F)c3)C[C@H]2C(=O)Nc2ccc(F)c(O)n2)c(C)n1 [Example 325, (1R,2S)-2-{[(2,4-dimethylpyrimidin-5-yl)oxy]methyl}-N-(5-fluoro-6-hydroxypyridin-2-yl)-2-(3-fluorophenyl)cyclopropanecarboxamide] |  |  |  | 20 nM | 158 nM | 
Cc1nc(C)c(OC[C@@]2(c3cccc(F)c3)C[C@H]2C(=O)Nc2ccc(F)cn2)c(=O)[nH]1 [Example 326, (1R,2S)-2-{[(2,4-dimethyl-6-oxo-1,6-dihydropyrimidin-5-yl)oxy]methyl}-2-(3-fluorophenyl)-N-(5-fluoropyridin-2-yl)cyclopropanecarboxamide] |  |  |  | 6 nM | 123 nM | 
COc1cc(NC(=O)[C@@H]2C[C@@]2(COc2cnc(C)nc2C)c2ccccc2)cnc1F [Example 327, (1R,2S)-2-{[(2,4-dimethylpyrimidin-5-yl)oxy]methyl}-N-(6-fluoro-5-methoxypyridin-3-yl)-2-phenylcyclopropanecarboxamide] | 3 nM | 192 nM |  |  |  | 
